Laboratory results published in US10124008B2, “Use of inhibitors of acid sphingomyelinase to treat acquired and inherited retinal degenerations” (Wisconsin Alumni Research Foundation, priority 2014, dated 2018).
Entries after “also recorded” stand apart in the source; their conditions may differ.

Tests used:
Format in all cases: cell-based, porcine
[1] = test system: EGFP-LC3-labeled autophagosomes in primary RPE; assay: Live imaging of EGFP-LC3 autophagosome trafficking (spinning disk, Boolean gating); conditions: desipramine 10 μM for 3 h
Experimental: RPE cells were transfected with EGFP-LC3 or tandem fluorescent mRFP-GFP-LC3 (Addgene) using the AMAXA NUCLEOFECTOR II (Lonza). Approximately 1.5 million cells and 5 μg of plasmid DNA were used for each transfection. Cells were plated either on serum-coated glass-bottom dishes (Mattek) or TRANSWELL filters at confluence. Live imaging of autophagosome traffic and autophagic flux were performed on the Revolution XD spinning disk microscopy system (Andor) equipped with the Yokogawa CSU-X1 confocal spinning disk head, Nikon Eclipse Ti inverted microscope surrounded by an Okolab cage incubator, iXon x3 897 EM-CCD camera, Andor laser combiner with four solid state lasers at 405, 488, 561, and 640 nm and corresponding band-pass filter sets (Sutter), and ASI motorized stage with piezo-Z for rapid Z-stack acquisition. Andor IQ2 software was used for image acquisition and Imaris x64 (Bitplane) for image analysis. For live imaging, cells were serum starved for 2 h to induce autophagy and rapid z-stacks were acquired using the 100×1.49 NA Apo TIRF objective (Nikon) for ˜50 frames at 37° C. Trafficking data was collected from three separate transfections for a total of at least 12-30 movies captured for treatment. During image acquisition care was taken to maintain the same laser power, exposure and electron-multiplying gain settings. Trafficking analysis was carried out using the Spots and Tracks modules of the Imaris software (Liu et al., 2010). After background subtraction (using the background subtraction algorithm and identical automatic threshold for all images) and smoothing (Gaussian algorithm with identical threshold settings for all images), Spots and Tracks algorithms were used to identify vesicles and follow them through time and cell-space to obtain total track length and track displacement. […] Data were analyzed using either a two-tailed t-test or one-way ANOVA followed by Bonferroni or Dunnett's post-tests (GraphPad PRISM). Unless otherwise stated, data are presented as Mean±S.E.M. of ≥3 independent experiments, with 3 to 4 replicates per condition per experiment. […] Regions were defined by: minimum or maximum track length, minimum or maximum displacement and a slope of 0.5 (displacement divided by length). Tracks with slope <0.5 were taken as less straight (region 2) than those with slope of >0.5 (region 3). Tracks within each region are represented as a percent of total number of tracks in Tables 1 and 2. One-way ANOVA or t-tests were used to compare regions between treatment groups. […] To examine the efficiency of autophagosome transport, Spots and Tracks algorithms in Imaris were used to calculate how far each autophagosome traveled (track displacement length) as a function of the movement required to travel that distance (total track length) (Liu et al., 2010).

primary RPE cells = assay: Live imaging of tandem fluorescent mRFP-GFP-LC3 (tfLC3), autophagic flux; conditions: RPE with A2E; 3 h drug incubation (TO901317 1 μM 20 h)
Experimental: RPE cells were transfected with EGFP-LC3 or tandem fluorescent mRFP-GFP-LC3 (Addgene) using the AMAXA NUCLEOFECTOR II (Lonza). Approximately 1.5 million cells and 5 μg of plasmid DNA were used for each transfection. Cells were plated either on serum-coated glass-bottom dishes (Mattek) or […] filters at confluence.
Andor IQ2 software was used for image acquisition and Imaris x64 (Bitplane) for image analysis. […] Trafficking data was collected from three separate transfections for a total of at least 12-30 movies captured for treatment. During image acquisition care was taken to maintain the same laser power, exposure and electron-multiplying gain settings. […] After background subtraction (using the background subtraction algorithm and identical automatic threshold for all images) and smoothing (Gaussian algorithm with identical threshold settings for all images), Spots and Tracks algorithms were used to identify vesicles and follow them through time and cell-space to obtain total track length and track displacement.
We used tandem fluorescent mRFP-GFP-LC3 (tfLC3) to monitor autophagy in primary RPE cells in real time.
We performed two initial screens: first, we compared the ability of functional inhibitors (fluoxetine and amitriptyline) with that of the lone structural ASMase inhibitor zoledronic acid in decreasing acetylated tubulin. Here, polarized RPE monolayers with or without A2E were treated with one of the three inhibitors (10 μM, 3 h). Desipramine as a positive control. At the end of the incubation period, cells were fixed and stained for acetylated tubulin, imaged and the amount of acetylated tubulin in the cells was quantified. Second, we evaluated three additional drugs (sertraline, astemizole and fexofenadine) for their abilities to increase autophagy in the RPE. Cells with or without bisretinoids were transfected with mRFP-GFP-LC3, starved to induce autophagy, treated with drugs and imaged as in FIG. 9D.

[2] = test system: acid sphingomyelinase (ASMase); assay: ASMase activity in primary RPE (sphingomyelinase fluorimetric assay kit); conditions: desipramine 10 μM for 3 hours
Experimental: Cells were harvested by trypsinization and cell pellets were washed with PBS to remove residual medium. Cells were lysed in HNTG lysis buffer (50 mM Hepes, pH 7.4, 150 mM NaCl, 10% glycerol, 1.5 mM MgCl2, 1% triton X-100) supplemented with protease inhibitors. Total protein was measured using the DC protein assay kit (BioRad). Cellular cholesterol was quantified using the Amplex Red cholesterol assay kit (INVITROGEN) as detailed previously (Lakkaraju et al., 2007). Single eyecups from wild-type and ABCA4^−/− mice were homogenized in 50 μl of lysis buffer and processed as above. For measuring acid sphingomyelinase activity, cells were lysed in acidic pH and assays were performed using the sphingomyelinase fluorimetric assay kit from Cayman Chemicals according to the manufacturer's protocol.

primary RPE monolayers = assay: Reactive oxygen species assay (CELLROX) after 10% NHS; conditions: RPE with A2E, short treatment with desipramine
Experimental: Reactive oxygen species (ROS) generation was measured using […] Deep Red (Molecular Probes, #10422) according to manufacturer's recommendation. After 10% NHS treatment, medium containing NHS was removed and cells were rinsed with HBSS before incubation in 5 μM […] reagent at 37° C. for 30 min. Cells were rinsed 3 times with PBS and fluorescence was read with microplate reader at Ex/Em of 640/665. For normalization purposes, cells were fixed, stained with DAPI, and fluorescence was read at Ex/Em: 360/460.

[3] = percent of total EGFP-LC3 tracks, serum-starved RPE

Question: Which results are given for CNCCCN1c2ccccc2CCc2ccccc21 [desipramine]?
Answer: number of motile tracks and long-range displacement of autophagosomes ([1]; RPE cells with A2E): increased both the number of motile tracks and long-range displacement of autophagosomes; Region 1 (R1) (D <2.5 μm, L <10 μm) [1, 3]: 84.28%; Region 3 (R3) (L >10 μm, Slope >0.5 μm) [1, 3]: 7.93%; autophagic flux / autophagosome-lysosome fusion (tfLC3 EGFP:mRFP) (primary RPE cells): corrected defects in autophagosome-lysosome fusion; also recorded: completely reversed the autophagic block induced by A2E; ASMase activity [2]: decreased ASMase activity and ceramide levels; ROS levels after complement attack (primary RPE monolayers): decreased ROS levels after complement attack; ROS levels after complement attack (primary RPE monolayers; listed as Desipramine): prevented mitochondrial oxidative damage after complement attack
